In patent US20260325533A1, “CDK INHIBITOR COMPOUNDS” (ALEKSIA THERAPEUTICS, INC., priority 2023, published 2026):
Like-named read-outs stand apart in the source and are kept apart here.

What was measured:
Type in all cases: biochemical
[1] = molecular target: CDK6/CCND1 (Homo sapiens, UniProt Q00534); experiment: CDK6 homogeneous time-resolved fluorescence (HTRF) kinase assay; settings: CDK6/CCND
Procedure, shortened: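 1 nM enzyme, 1 mM ATP, 50 nM ULight-4E-BP1 (Thr37/46) peptide, 1% DMSO; 20 min compound preincubation, 60 min reaction, 23 °C. EDTA stop, 2 nM Eu-anti-phospho-4E-BP1 antibody 60 min. TR-FRET 665 nm (or 665/615 ratio); IC50 from 11-point half-log titration, top 10 μM.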

[2] = molecular target: CDK2/CCNE1 (Homo sapiens, UniProt P24941); experiment: CDK2 homogeneous time-resolved fluorescence (HTRF) kinase assay; settings: CDK2/CCNE
Procedure, shortened: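 Compounds were titrated 11-point, half-log from typically 10 μM against 3 nM CDK2/cyclin E1 at 1 mM ATP, with a 20 min enzyme preincubation. Phosphorylation of 50 nM ULight-4E-BP1 peptide over 60 min at 23 °C was detected by europium anti-phospho antibody TR-FRET.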

[3] = molecular target: CDK1/CCNB1 (Homo sapiens, UniProt P06493); experiment: CDK1 homogeneous time-resolved fluorescence (HTRF) kinase assay; settings: CDK1/CCNB
Sequence of CDK1/CCNB1 (P06493 whole entry): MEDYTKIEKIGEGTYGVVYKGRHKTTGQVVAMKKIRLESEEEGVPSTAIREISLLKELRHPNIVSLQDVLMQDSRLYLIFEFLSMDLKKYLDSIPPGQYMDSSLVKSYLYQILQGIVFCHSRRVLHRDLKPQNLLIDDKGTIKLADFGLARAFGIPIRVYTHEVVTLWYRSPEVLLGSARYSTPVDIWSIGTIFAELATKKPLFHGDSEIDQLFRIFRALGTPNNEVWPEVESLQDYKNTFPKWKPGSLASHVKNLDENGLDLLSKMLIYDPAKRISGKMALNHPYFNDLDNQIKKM
Sequence of CDK1/CCNB1 (P14635 whole entry partner): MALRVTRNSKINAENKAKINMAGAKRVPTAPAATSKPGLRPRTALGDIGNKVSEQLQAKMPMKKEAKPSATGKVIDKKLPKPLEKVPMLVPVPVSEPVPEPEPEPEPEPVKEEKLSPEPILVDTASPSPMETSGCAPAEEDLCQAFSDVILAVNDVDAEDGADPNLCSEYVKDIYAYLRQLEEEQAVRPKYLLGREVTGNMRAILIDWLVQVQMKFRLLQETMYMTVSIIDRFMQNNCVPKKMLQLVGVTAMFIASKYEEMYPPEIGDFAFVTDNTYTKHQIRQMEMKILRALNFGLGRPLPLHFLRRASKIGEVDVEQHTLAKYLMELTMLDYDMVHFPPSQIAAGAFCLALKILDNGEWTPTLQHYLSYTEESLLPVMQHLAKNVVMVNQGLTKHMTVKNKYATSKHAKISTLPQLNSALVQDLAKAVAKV
Procedure, shortened: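 0.5 nM CDK1/CCNB1 was preincubated 20 min at 23 °C with compound in HEPES pH-unspecified buffer (MgCl2, EGTA, DTT, Tween 20), then reacted 60 min with 1 mM ATP and 50 nM ULight-4E-BP1 (Thr37/46) peptide. EDTA-stopped reactions were detected with 2 nM Eu-anti-phospho antibody; IC50 from 11-point half-log titrations.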

[4] = molecular target: CDK4/CCND3 (Homo sapiens, UniProt P11802); experiment: CDK4 homogeneous time-resolved fluorescence (HTRF) kinase assay; settings: CDK4/CCND
Sequence of CDK4/CCND3 (P11802 whole entry): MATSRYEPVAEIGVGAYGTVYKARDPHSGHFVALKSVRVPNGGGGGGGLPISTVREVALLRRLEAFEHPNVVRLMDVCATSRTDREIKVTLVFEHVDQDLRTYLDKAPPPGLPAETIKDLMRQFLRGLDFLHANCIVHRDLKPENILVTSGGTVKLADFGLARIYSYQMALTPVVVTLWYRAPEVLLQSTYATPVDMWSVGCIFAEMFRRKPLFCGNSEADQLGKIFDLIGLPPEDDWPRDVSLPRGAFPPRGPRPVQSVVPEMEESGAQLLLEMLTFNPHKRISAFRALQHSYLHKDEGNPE
Sequence of CDK4/CCND3 (P30281 whole entry partner): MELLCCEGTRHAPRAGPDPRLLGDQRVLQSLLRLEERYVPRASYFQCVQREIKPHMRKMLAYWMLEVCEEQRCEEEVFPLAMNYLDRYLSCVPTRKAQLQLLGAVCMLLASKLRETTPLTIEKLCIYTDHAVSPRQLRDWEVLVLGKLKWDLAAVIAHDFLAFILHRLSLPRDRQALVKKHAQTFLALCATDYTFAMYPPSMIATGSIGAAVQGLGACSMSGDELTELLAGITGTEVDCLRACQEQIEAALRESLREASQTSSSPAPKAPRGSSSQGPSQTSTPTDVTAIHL
Procedure, shortened: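 Compounds were preincubated with 1.5 nM CDK4/CCND3 for 20 min at 23 °C in HEPES buffer (pH not given), then reacted 60 min with 1 mM ATP and 50 nM ULight-4E-BP1 (Thr37/46) peptide. EDTA stop, Eu-anti-phospho-4E-BP1 detection; 665/615 nm ratio; IC50 from 11-point half-log titrations from 10 μM.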

[5] = >250 nM, 1 mM ATP, read-out: CDK6/CCND IC50, >250 nM
[6] = <25 nM, read-out: CDK2/CCNE IC50, <25 nM
[7] = >250 nM, read-out: CDK1/CCNB IC50 >250 nM
[8] = >250 nM, read-out: CDK4/CCND IC50, >250 nM
[9] = 25-250 nM, read-out: CDK4/CCND IC50, 25-250 nM
[10] = >250 nM marked x, read-out: CDK1/CCNB IC50 >250 nM
[11] = x = IC50 >250 nM, read-out: CDK6/CCND IC50 (>250 nM column)
[12] = x = IC50 <25 nM, read-out: CDK2/CCNE IC50 (<25 nM)
[13] = x = IC50 >250 nM, read-out: CDK1/CCNB IC50 (>250 nM column)
[14] = x = IC50 >250 nM, read-out: CDK4/CCND IC50 (>250 nM column)
[15] = x = IC50 25-250 nM, read-out: CDK1/CCNB IC50 (25-250 nM)
[16] = x = IC50 25-250 nM, read-out: CDK2/CCNE IC50 (25-250 nM)
[17] = 25-250 nM, read-out: CDK2/CCNE IC50, 25-250 nM

Sequence of CDK6/CCND1 (Q00534 whole entry): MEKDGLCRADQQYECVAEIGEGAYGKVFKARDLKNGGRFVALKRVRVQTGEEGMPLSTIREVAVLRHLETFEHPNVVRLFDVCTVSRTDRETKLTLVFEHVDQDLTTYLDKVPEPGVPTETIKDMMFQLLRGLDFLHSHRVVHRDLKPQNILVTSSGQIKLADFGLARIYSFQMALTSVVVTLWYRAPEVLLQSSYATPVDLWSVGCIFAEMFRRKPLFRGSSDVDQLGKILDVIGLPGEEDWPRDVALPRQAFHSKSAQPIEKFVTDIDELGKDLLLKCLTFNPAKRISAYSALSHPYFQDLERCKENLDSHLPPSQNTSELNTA
Sequence of CDK6/CCND1 (P24385 whole entry partner): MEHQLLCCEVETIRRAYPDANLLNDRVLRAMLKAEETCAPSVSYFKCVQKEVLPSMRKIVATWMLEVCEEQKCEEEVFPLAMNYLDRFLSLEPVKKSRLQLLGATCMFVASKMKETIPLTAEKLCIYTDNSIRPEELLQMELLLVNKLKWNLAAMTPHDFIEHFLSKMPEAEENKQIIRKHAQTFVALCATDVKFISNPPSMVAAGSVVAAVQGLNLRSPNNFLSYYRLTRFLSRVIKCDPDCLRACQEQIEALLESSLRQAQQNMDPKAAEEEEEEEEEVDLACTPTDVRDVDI

Cc1c(-c2nccc3cnc(Nc4ccc(C(=O)Nc5ccccc5)cc4)cc23)ccc2c1cnn2CC(C)(C)O [Ex 937, 4-((5-(1-(2-hydroxy-2-methylpropyl)-4-methyl-1H-indazol-5-yl)-2,6-naphthyridin-3-yl)amino)-N-phenylbenzamide]
IC50 [1, 5]: > 0.25 µM
IC50 [2, 6]: < 0.025 µM
IC50 [3, 7]: > 0.25 µM
IC50 [4, 8]: > 0.25 µM

CC(=O)NC1CCN(c2ccc(Nc3cc4c(-c5ccc6c(cnn6CC(C)(C)O)c5C)nccc4cn3)cc2S(C)(=O)=O)C1 (stereo not drawn) [Example 930, N-(1-(4-((5-(1-(2-hydroxy-2-methylpropyl)-4-methyl-1H-indazol-5-yl)-2,6-naphthyridin-3-yl)amino)-2-(methylsulfonyl)phenyl)pyrrolidin-3-yl)acetamide]
IC50 ([1]; 25-250 nM, 1 mM ATP, read-out: CDK6/CCND IC50, 25-250 nM): 0.025 to 0.25 µM
IC50 [2, 6]: < 0.025 µM
IC50 ([3]; 25-250 nM, read-out: CDK1/CCNB IC50, 25-250 nM): 0.025 to 0.25 µM
IC50 [4, 9]: 0.025 to 0.25 µM

CS(=O)(=O)c1ccc(Nc2cc3c(ccnc3[C@H]3CC[C@H](C(=O)N4CCSCC4)CC3)cn2)cc1 [Ex 228, ((1r,4r)-4-(7-((4-(methylsulfonyl)phenyl)amino)-2,6-naphthyridin-1-yl)cyclohexyl)(thiomorpholino)methanone]
IC50 ([1]; >250 nM marked x, read-out: CDK6/CCND IC50 >250 nM): > 0.25 µM
IC50 ([2]; >250 nM marked x, read-out: CDK2/CCNE IC50 >250 nM): > 0.25 µM
IC50 [3, 10]: > 0.25 µM
IC50 ([4]; >250 nM marked x, read-out: CDK4/CCND IC50 >250 nM): > 0.25 µM

CS(=O)(=O)c1ccc(Nc2cc3c(C#Cc4cn[nH]c4)nccc3cn2)cc1 [Ex 664, 5-((1H-pyrazol-4-yl)ethynyl)-N-(4-(methylsulfonyl)phenyl)-2,6-naphthyridin-3-amine]
IC50 [1, 11]: > 0.25 µM
IC50 [2, 12]: < 0.025 µM
IC50 [3, 13]: > 0.25 µM
IC50 [4, 14]: > 0.25 µM

CC(C)S(=N)(=O)c1ccc(Nc2cc3c(C#Cc4ccc5c(c4)NC(=O)C54CCC4)nccc3cn2)cc1 (single isomer, unassigned) [Ex 383, 6'-((7-((4-(propan-2-ylsulfonimidoyl)phenyl)amino)-2,6-naphthyridin-1-yl)ethynyl)spiro[cyclobutane-1,3'-indolin]-2'-one]
IC50 ([1]; x = IC50 25-250 nM, read-out: CDK6/CCND IC50 (25-250 nM)): 0.025 to 0.25 µM
IC50 [2, 12]: < 0.025 µM
IC50 [3, 15]: 0.025 to 0.25 µM
IC50 ([4]; x = IC50 25-250 nM, read-out: CDK4/CCND IC50 (25-250 nM)): 0.025 to 0.25 µM

CCC1(C)C(=O)Nc2cc(C#Cc3nccc4cnc(Nc5ccc(S(C)(=O)=O)cc5)cc34)ccc21 (racemic) [Example 390, 3-ethyl-3-methyl-6-((7-((4-(methylsulfonyl)phenyl)amino)-2,6-naphthyridin-1-yl)ethynyl)indolin-2-one]
IC50 [1, 11]: > 0.25 µM
IC50 [2, 12]: < 0.025 µM
IC50 [3, 15]: 0.025 to 0.25 µM
IC50 [4, 14]: > 0.25 µM

COc1ccnc(C#Cc2nccc3cnc(Nc4ccc(S(C)(=O)=O)cc4)cc23)c1N [Ex 525, 5-((3-amino-4-methoxypyridin-2-yl)ethynyl)-N-(4-(methylsulfonyl)phenyl)-2,6-naphthyridin-3-amine]
IC50 [1, 11]: > 0.25 µM
IC50 [2, 16]: 0.025 to 0.25 µM
IC50 [3, 13]: > 0.25 µM
IC50 [4, 14]: > 0.25 µM

Nc1ncccc1C#Cc1nccc2cnc(Nc3ccc(S(=O)(=O)Nc4nccc(N5CCOCC5)n4)cc3)cc12 [Example 464, 4-((5-((2-aminopyridin-3-yl)ethynyl)-2,6-naphthyridin-3-yl)amino)-N-(4-morpholinopyrimidin-2-yl)benzenesulfonamide]
IC50 [1, 11]: > 0.25 µM
IC50 [2, 12]: < 0.025 µM
IC50 [3, 13]: > 0.25 µM
IC50 [4, 14]: > 0.25 µM

COc1cc(C)c(C#Cc2nccc3cnc(Nc4ccc(S(C)(=O)=O)cc4)cc23)cn1 [Ex 910, 5-((6-methoxy-4-methylpyridin-3-yl)ethynyl)-N-(4-(methylsulfonyl)phenyl)-2,6-naphthyridin-3-amine]
IC50 [1, 5]: > 0.25 µM
IC50 [2, 17]: 0.025 to 0.25 µM
IC50 [3, 7]: > 0.25 µM
IC50 [4, 8]: > 0.25 µM

Cc1c(-c2nccc3cnc(Nc4ccc(S(=N)(=O)NC5CC5)cc4)cc23)ccc2c1cnn2CC(O)(C(F)(F)F)C(F)(F)F (single isomer, unassigned) [Ex 681, N-cyclopropyl-4-((5-(4-methyl-1-(3,3,3-trifluoro-2-hydroxy-2-(trifluoromethyl)propyl)-1H-indazol-5-yl)-2,6-naphthyridin-3-yl)amino)benzenesulfonimidamide]
IC50 [1, 5]: > 0.25 µM
IC50 [2, 6]: < 0.025 µM
IC50 [3, 7]: > 0.25 µM
IC50 [4, 9]: 0.025 to 0.25 µM

CS(=N)(=O)c1ccc(Nc2cc3c(C#Cc4ccc(C#N)cc4)nccc3cn2)cc1 (racemic) [Ex 526, 4-((7-((4-(S-methylsulfonimidoyl)phenyl)amino)-2,6-naphthyridin-1-yl)ethynyl)benzonitrile]
IC50 [1, 11]: > 0.25 µM
IC50 [2, 16]: 0.025 to 0.25 µM
IC50 [3, 13]: > 0.25 µM
IC50 [4, 14]: > 0.25 µM

Cc1c(-c2nccc3cnc(Nc4ccc(S(C)(=O)=O)cc4)cc23)ccc2c1cnn2CC1CN(C)C1 [Ex 243, 5-(4-methyl-1-((1-methylazetidin-3-yl)methyl)-1H-indazol-5-yl)-N-(4-(methylsulfonyl)phenyl)-2,6-naphthyridin-3-amine]
IC50 ([1]; 25-250 nM marked x, read-out: CDK6/CCND IC50 25-250 nM): 0.025 to 0.25 µM
IC50 ([2]; 25-250 nM marked x, read-out: CDK2/CCNE IC50 25-250 nM): 0.025 to 0.25 µM
IC50 [3, 10]: > 0.25 µM
IC50 ([4]; 25-250 nM marked x, read-out: CDK4/CCND IC50 25-250 nM): 0.025 to 0.25 µM

CS(=O)(=O)c1ccc(Nc2cc3c(C#Cc4ccc(C#N)c(F)c4F)nccc3cn2)cc1 [Ex 651, 2,3-difluoro-4-((7-((4-(methylsulfonyl)phenyl)amino)-2,6-naphthyridin-1-yl)ethynyl)benzonitrile]
IC50 [1, 11]: > 0.25 µM
IC50 [2, 16]: 0.025 to 0.25 µM
IC50 [3, 13]: > 0.25 µM
IC50 [4, 14]: > 0.25 µM

Cc1c(-c2nccc3cnc(Nc4ccc(S(C)(=O)=O)cc4Br)cc23)ccc2c1cnn2CC(C)(C)O [Ex 750, 1-(5-(7-((2-bromo-4-(methylsulfonyl)phenyl)amino)-2,6-naphthyridin-1-yl)-4-methyl-1H-indazol-1-yl)-2-methylpropan-2-ol]
IC50 [1, 5]: > 0.25 µM
IC50 [2, 17]: 0.025 to 0.25 µM
IC50 [3, 7]: > 0.25 µM
IC50 [4, 8]: > 0.25 µM

CS(=O)(=O)c1ccc(Nc2cc3c(C#Cc4ccc5c(c4)OCC(=O)N5)nccc3cn2)cc1 [Example 519, 7-((7-((4-(methylsulfonyl)phenyl)amino)-2,6-naphthyridin-1-yl)ethynyl)-2H-benzo[b][1,4]oxazin-3(4H)-one]
IC50 [1, 11]: > 0.25 µM
IC50 [2, 16]: 0.025 to 0.25 µM
IC50 [3, 13]: > 0.25 µM
IC50 [4, 14]: > 0.25 µM

CS(=O)(=O)c1ccc(Nc2cc3c(C#Cc4ccc5c(c4)NC(=O)C54CCC4)nccc3cn2)cc1 [Ex 460, 6'-((7-((4-(methylsulfonyl)phenyl)amino)-2,6-naphthyridin-1-yl)ethynyl)spiro[cyclobutane-1,3'-indolin]-2'-one]
IC50 [1, 11]: > 0.25 µM
IC50 [2, 12]: < 0.025 µM
IC50 [3, 13]: > 0.25 µM
IC50 [4, 14]: > 0.25 µM

CS(=O)(=O)c1ccc(Nc2cc3c(C#Cc4ccc(N)nc4Cl)nccc3cn2)cc1 [Ex 558, 5-((6-amino-2-chloropyridin-3-yl)ethynyl)-N-(4-(methylsulfonyl)phenyl)-2,6-naphthyridin-3-amine]
IC50 [1, 11]: > 0.25 µM
IC50 [2, 16]: 0.025 to 0.25 µM
IC50 [3, 13]: > 0.25 µM
IC50 [4, 14]: > 0.25 µM

COc1ccc(NS(=O)(=O)c2ccc(Nc3cc4c(-c5ccc6c(cnn6CC(O)(C(F)(F)F)C(F)(F)F)c5C)nccc4cn3)cc2)nc1N1CCOCC1 [Ex 697, N-(5-methoxy-6-morpholinopyridin-2-yl)-4-((5-(4-methyl-1-(3,3,3-trifluoro-2-hydroxy-2-(trifluoromethyl)propyl)-1H-indazol-5-yl)-2,6-naphthyridin-3-yl)amino)benzenesulfonamide]
IC50 [1, 5]: > 0.25 µM
IC50 [2, 17]: 0.025 to 0.25 µM
IC50 [3, 7]: > 0.25 µM
IC50 [4, 8]: > 0.25 µM
